Key:
Test in all cases: relative viability (nuclei count vs DMSO), 5 days (fraction); higher = more cells survive
[1] = system: ABC-1
Outline: (§1)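 Cells from lung cancer lines were seeded into 1536-well plates and, one day later, dosed by pin tool. Treatments were either a single drug or a fixed dose of an anchor drug with five library-drug doses (not always all listed) in √10 steps. After 5 days, nuclei were stained in a one-step fixation (final 0.05% Triton X-100, 1% formaldehyde, 1 ug/ml Hoechst) and counted on 4× images, and relative viability is the treated-to-vehicle nuclei ratio, as the median of duplicate plates.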

[2] = system: ChaGo-K-1
Outline: as §1

[3] = system: HCC-78
Outline: as §1

[4] = system: HOP-62
Outline: as §1

[5] = system: LCLC-97TM1
Outline: as §1

[6] = system: LOU-NH91
Outline: as §1

[7] = system: NCI-H1355
Outline: as §1

[8] = system: NCI-H1437
Outline: as §1

[9] = system: NCI-H1648
Outline: as §1

[10] = system: NCI-H1755
Outline: as §1

[11] = system: NCI-H1792
Outline: as §1

[12] = system: NCI-H2085
Outline: as §1

[13] = system: NCI-H2170
Outline: as §1

[14] = system: NCI-H2342
Outline: as §1

[15] = system: NCI-H23
Outline: as §1

[16] = system: NCI-H2405
Outline: as §1

[17] = system: NCI-H322M
Outline: as §1

[18] = system: NCI-H650
Outline: as §1

[19] = system: NCI-H727
Outline: as §1

[20] = system: RERF-LC-KJ
Outline: as §1

CCCCCCCCCCCC1=C(O)C(=O)C=C(O)C1=O [Embelin] + NC(=O)Nc1cc(-c2cccc(F)c2)sc1C(=O)N[C@H]1CCCNC1 [AZD7762] (partner 0.2 µM)
relative viability ([1]; first compound 0.08 µM): 0.701 | relative viability ([1]; first compound 0.8 µM): 1.01 | relative viability ([1]; first compound 2.53 µM): 0.875 | relative viability ([1]; first compound 8 µM): 0.856 | relative viability ([2]; first compound 0.08 µM): 0.861 | relative viability ([2]; first compound 0.8 µM): 0.922 | relative viability ([2]; first compound 2.53 µM): 0.922 | relative viability ([2]; first compound 8 µM): 0.874 | relative viability ([3]; first compound 0.08 µM): 0.555 | relative viability ([3]; first compound 0.8 µM): 0.773 | relative viability ([3]; first compound 2.53 µM): 0.661 | relative viability ([3]; first compound 8 µM): 0.647 | relative viability ([4]; first compound 0.08 µM): 0.384 | relative viability ([4]; first compound 0.8 µM): 0.568 | relative viability ([4]; first compound 2.53 µM): 0.734 | relative viability ([4]; first compound 8 µM): 0.363 | relative viability ([5]; first compound 0.08 µM): 0.223 | relative viability ([5]; first compound 0.8 µM): 0.248 | relative viability ([5]; first compound 2.53 µM): 0.205 | relative viability ([5]; first compound 8 µM): 0.268 | relative viability ([6]; first compound 0.08 µM): 0.795 | relative viability ([6]; first compound 0.8 µM): 0.932 | relative viability ([6]; first compound 2.53 µM): 0.779 | relative viability ([6]; first compound 8 µM): 0.729 | relative viability ([7]; first compound 0.08 µM): 0.821 | relative viability ([7]; first compound 0.8 µM): 0.802 | relative viability ([7]; first compound 2.53 µM): 0.836 | relative viability ([7]; first compound 8 µM): 0.743 | relative viability ([8]; first compound 0.08 µM): 1.15 | relative viability ([8]; first compound 0.8 µM): 1.16 | relative viability ([8]; first compound 2.53 µM): 1.15 | relative viability ([8]; first compound 8 µM): 1.2 | relative viability ([9]; first compound 0.08 µM): 0.598 | relative viability ([9]; first compound 0.8 µM): 0.689 | relative viability ([9]; first compound 2.53 µM): 0.628 | relative viability ([9]; first compound 8 µM): 0.709 | relative viability ([10]; first compound 0.08 µM): 0.432 | relative viability ([10]; first compound 0.8 µM): 0.477 | relative viability ([10]; first compound 2.53 µM): 0.45 | relative viability ([10]; first compound 8 µM): 0.429 | relative viability ([11]; first compound 0.08 µM): 0.853 | relative viability ([11]; first compound 0.8 µM): 0.849 | relative viability ([11]; first compound 2.53 µM): 0.814 | relative viability ([11]; first compound 8 µM): 0.547 | relative viability ([12]; first compound 0.08 µM): 0.956 | relative viability ([12]; first compound 0.8 µM): 1.09 | relative viability ([12]; first compound 2.53 µM): 0.93 | relative viability ([12]; first compound 8 µM): 1.03 | relative viability ([13]; first compound 0.08 µM): 0.906 | relative viability ([13]; first compound 0.8 µM): 0.958 | relative viability ([13]; first compound 2.53 µM): 1.06 | relative viability ([13]; first compound 8 µM): 0.914 | relative viability ([14]; first compound 0.08 µM): 0.47 | relative viability ([14]; first compound 0.8 µM): 0.514 | relative viability ([14]; first compound 2.53 µM): 0.546 | relative viability ([14]; first compound 8 µM): 0.456 | relative viability ([15]; first compound 0.08 µM): 0.27 | relative viability ([15]; first compound 0.8 µM): 0.297 | relative viability ([15]; first compound 2.53 µM): 0.3 | relative viability ([15]; first compound 8 µM): 0.248 | relative viability ([16]; first compound 0.08 µM): 0.696 | relative viability ([16]; first compound 0.8 µM): 0.838 | relative viability ([16]; first compound 2.53 µM): 0.876 | relative viability ([16]; first compound 8 µM): 0.716 | relative viability ([17]; first compound 0.08 µM): 0.585 | relative viability ([17]; first compound 0.8 µM): 0.632 | relative viability ([17]; first compound 2.53 µM): 0.568 | relative viability ([17]; first compound 8 µM): 0.472 | relative viability ([18]; first compound 0.08 µM): 0.889 | relative viability ([18]; first compound 0.8 µM): 1.03 | relative viability ([18]; first compound 2.53 µM): 1.01 | relative viability ([18]; first compound 8 µM): 1.27 | relative viability ([19]; first compound 0.08 µM): 0.533 | relative viability ([19]; first compound 0.8 µM): 0.503 | relative viability ([19]; first compound 2.53 µM): 0.647 | relative viability ([19]; first compound 8 µM): 0.582 | relative viability ([20]; first compound 0.08 µM): 1.02 | relative viability ([20]; first compound 0.8 µM): 1.15 | relative viability ([20]; first compound 2.53 µM): 1.13 | relative viability ([20]; first compound 8 µM): 1

Source: the supplement of paper PMC10307832
